In US20250003900A1, “Micro Magnetic Resonance Relaxometry (MMRR) for Rapid and Non-Invasive Detection of Senescence in Mesenchymal Stem Cells” (Massachusetts Institute of Technology, priority 2021, published 2025):

Assays:
MSCs [1] = assay: μMRR T2 measurement of MSCs with induced senescence; assay type: cell-based
Text: Cytokines such as Transforming Growth Factor-β1 (TGFβ1) and interleukin-1 (IL-1) induce senescence in MSCs. TGFβ1 is a TGF family member that controls numerous cellular functions, including proliferation and cell death. (Refs. 51 and 52) IL-1 is a proinflammatory cytokine whose expression is associated with SASP. […] The senescent cells are more in TGF-β1 treated cells than IL-1 treated cells (FIG. 8), which is also confirmed here by its decreased T2 values than IL-1 treated cells.
Since MSCs donors show differences in proliferative ability, it is important to find the limit of detection (LOD) of MRR assay in terms of the cell number. […] Here, the LOD was analyzed by decreasing the concentration of cells even lower to 4 ×10^4, 2×10^4, and 1×10^4 cells for uMRR detection as shown in the FIG. 6H and FIG. 8. […] The batches of 1, 2, and 4 (×10^4 cells) in 4 μl detection volume of TGF-β1 treated and untreated MSCs were analyzed by MRR. […]
(§1) Bone marrow-derived mesenchymal stem cells (MSC) were purchased from Lonza Pte. […] The cell number was calculated using a disposable hemocytometer (INCYTO, Korea) with the trypan blue exclusion method. […]
For all MRR experiments, the normalized concentration (3×10^5 cells) of MSCs have used unless otherwise stated. […] Proton transverse relaxation rates T2 were measured by standard Carr-Purcell-Meiboom-Gill (CPMG) pulse programme (Refs. 64 and 65) (FIG. 3B). […]

MSCs [2] = assay: Immunofluorescence of proliferation marker EdU and senescence marker γ-H2AX foci in MSCs; assay type: cell-based; settings: passage 3 MSCs, 1 μM doxorubicin for 24 hours
Protocol: Proliferation and senescence were measured simultaneously in order to correlate cell state directly with the MRR T2 values. MSCs from the same donor were serially passaged to passage 3, passage 5, and passage 6. As a positive control for senescence cells, cells from passage 3 were also treated with doxorubicin (DOX), a chemotherapy agent that produces DNA damage and reactive oxygen species to induce senescence in tumor cells. To measure DNA synthesis, EdU (5-ethynyl-2′-deoxyuridine) was used as an indicator of active cell proliferation (shown in green). In contrast, senescent cells are known to accumulate γ-H2AX foci (indicated in red). The proliferation (Pf) index and senescence (Sn) index were calculated from these images and plotted respectively (FIG. 6C and FIG. 6D). […]
as §1
For detection of SA-βgal together with another senescence marker (γ-H2AX foci) (Ref. 66) and the proliferation marker, 5-ethynyl-2′-deoxyuridine (Edu) in the cells, the protocol was performed as previously mentioned (Ref. 67). […] Subsequently, Edu labeling was detected following the manufacturer's protocol (Invitrogen). […]

In the case of “TGFβ1: TGF family member cytokine that induces senescence in MSCs”, the “T2 values of cytokine treated cells” value (MSCs [1]; MSCs treated with 10 ng and 20 ng/ml cytokine) was “decreased with increasing cytokine concentrations” and the “senescent cells in TGF-β1 treated cells versus IL-1 treated cells” value (MSCs [1]; confirmed by decreased T2 values than IL-1 treated cells) was “more”.

With `COc1cccc2c1C(=O)c1c(O)c3c(c(O)c1C2=O)C[C@@](O)(C(=O)CO)C[C@@H]3O[C@H]1C[C@H](N)[C@H](O)[C@H](C)O1` [DOX, doxorubicin] the “senescence (Sn) index (γ-H2aX)” value (MSCs [2]; compared to P3 and P5) was “more senescent cells” and the “proliferation (Pf) index” value (MSCs [2]; compared with P3, P5 and P6) was “lowest”.
